Reference: the NIST ThermoML archive (doi:10.1016/j.jct.2015.04.006)

Experiment: mn = molality of the nth substance listed, in mol/kg
Conditions: 100 kPa, Liquid; for speed of sound: Frequency=3 MHz, Sing-around technique in a fixed-path interferometer; for mass density: Vibrating tube method

CCCC[N+]1(C)CCOCC1.O=S(=O)([N-]S(=O)(=O)C(F)(F)F)C(F)(F)F + C[S+](C)[O-]
Conditions | mass density, 298.15 K [kg/m3] | mass density, 303.15 K [kg/m3] | mass density, 308.15 K [kg/m3] | mass density, 313.15 K [kg/m3] | mass density, 318.15 K [kg/m3] | speed of sound, 298.15 K [m/s] | speed of sound, 303.15 K [m/s] | speed of sound, 308.15 K [m/s] | speed of sound, 313.15 K [m/s] | speed of sound, 318.15 K [m/s]
m1 = 0.01276 | 1096.62 | 1091.6 | 1086.58 | 1081.57 | 1076.55 | 1483.5 | 1466.6 | 1449.8 | 1433.1 | 1416.5
m1 = 0.01778 | 1097.14 | 1092.12 | 1087.11 | 1082.09 | 1077.08 | 1483 | 1466.2 | 1449.3 | 1432.6 | 1416.1
m1 = 0.02681 | 1098.08 | 1093.06 | 1088.05 | 1083.03 | 1078.02 | 1482.2 | 1465.4 | 1448.6 | 1431.9 | 1415.4
m1 = 0.04025 | 1099.46 | 1094.44 | 1089.43 | 1084.42 | 1079.41 | 1481 | 1464.2 | 1447.5 | 1430.8 | 1414.3
m1 = 0.05498 | 1100.96 | 1095.95 | 1090.94 | 1085.93 | 1080.93 | 1479.7 | 1462.9 | 1446.2 | 1429.6 | 1413.1
m1 = 0.06956 | 1102.43 | 1097.42 | 1092.42 | 1087.41 | 1082.41 | 1478.5 | 1461.7 | 1445 | 1428.4 | 1412
m1 = 0.08753 | 1104.23 | 1099.22 | 1094.22 | 1089.22 | 1084.22 | 1476.9 | 1460.1 | 1443.5 | 1426.9 | 1410.6
m1 = 0.1103 | 1106.47 | 1101.47 | 1096.47 | 1091.48 | 1086.48 | 1475 | 1458.2 | 1441.6 | 1425.1 | 1408.8
m1 = 0.1334 | 1108.73 | 1103.73 | 1098.73 | 1093.74 | 1088.75 | 1472.9 | 1456.3 | 1439.7 | 1423.3 | 1407
m1 = 0.1687 | 1112.1 | 1107.11 | 1102.12 | 1097.13 | 1092.14 | 1470 | 1453.4 | 1436.9 | 1420.5 | 1404.4
